# From patent US20030068615A1, “Polypeptides that bind HIV gp120 and related nucleic acids, antibodies, compositions, and methods of use” (priority 1999, published 2003)
# Read-outs that look alike come from different tables or passages of the source.
# Target: HIV-1LAI envelope gp120 (Human immunodeficiency virus type 1 group M subtype B, UniProt P03377)
# Format: binding
# Conditions: for Binding Results For Window Length (counts bound-background), 9: 9-mer starting at the first residue of the printed sequence; for number of radioactive decays (counts) counted: human CD4 21-mer scan, empty control 2075; for Counts per 20′ Average-background: CCR5 18-mer scan, radiolabeled HIV-1LAI gp120
# [1] = Panel C, 15-mers and 18-mers of CD4, empty control 556
# [2] = Panel A, 21-mers of CD4, empty control 515 and 617
# [3] = Panel E, 9-mers and 12-mers of CD4, empty control 571
# [4] = STRL33 amino terminus, background subtracted
# [5] = CXCR4 18-mer scan, background subtracted, empty control 0
# [6] = CXCR4 18-mer scan, empty control 412
# [7] = Panel D, 9-mers and 12-mers of CD4, empty control […]
# [8] = Panel B, 15-mers and 18-mers of CD4, empty control 575
sequence,measurement,setting,value
EFKIDIVVLAFQKAS,COUNTS of radiolabeled gp120 retained,[1],1188 counts
EFKIDIVVLAFQKASSIV,COUNTS of radiolabeled gp120 retained,[1],799 counts
EFKIDIVVLAFQKASSIVYKK,COUNTS of radiolabeled gp120 retained,[2],649 counts
EFSFPLAFT,COUNTS of radiolabeled gp120 retained,[3],658 counts
EFSFPLAFTVEK,COUNTS of radiolabeled gp120 retained,[3],585 counts
EFSFPLAFTVEKLTG,COUNTS of radiolabeled gp120 retained,[1],920 counts
EFSFPLAFTVEKLTGSGE,COUNTS of radiolabeled gp120 retained,[1],668 counts
EFSFPLAFTVEKLTGSGELWW,COUNTS of radiolabeled gp120 retained,[2],681 counts
EGEQVEFSF,COUNTS of radiolabeled gp120 retained,[3],735 counts
EGEQVEFSFPLA,COUNTS of radiolabeled gp120 retained,[3],1456 counts
EGEQVEFSFPLAFTV,COUNTS of radiolabeled gp120 retained,[1],3270 counts
EGEQVEFSFPLAFTVEKL,COUNTS of radiolabeled gp120 retained,[1],2164 counts
EGEQVEFSFPLAFTVEKLTGS,COUNTS of radiolabeled gp120 retained,[2],739 counts
EHDYHEDYGFSSFNDSSQ,"Binding Results For Window Length (counts bound-background), 9",[4],509 counts
same,"Binding Results For Window Length (counts bound-background), 12","STRL33 amino terminus, 12-mer starting at the first residue of the printed sequence, background subtracted",937 counts
same,"Binding Results For Window Length (counts bound-background), 15","STRL33 amino terminus, 15-mer starting at the first residue of the printed sequence, background subtracted",2235 counts
same,"Binding Results For Window Length (counts bound-background), 18","STRL33 amino terminus, 18-mer starting at the first residue of the printed sequence, background subtracted",1219 counts
EHQAFLQFS,"Binding Results For Window Length (counts bound-background), 9",[4],7505 counts
EKKTCQCPHRFQKTCSPI,number of radioactive decays (counts) counted,,2006 counts
EKLTGSGEL,COUNTS of radiolabeled gp120 retained,[3],541 counts
EKLTGSGELWWQ,COUNTS of radiolabeled gp120 retained,[3],543 counts
EKLTGSGELWWQAER,COUNTS of radiolabeled gp120 retained,[1],683 counts
EKVVYVGVWIPALLLTIP [CXCR4 segment 153-170],radioactive counts recorded in twenty minutes,[5],147 counts
same,radioactive counts recorded in twenty minutes,[6],559 counts
ENTVHKWISITEALAFFH [CXCR4 segment 277-294],radioactive counts recorded in twenty minutes,[5],315 counts
same,radioactive counts recorded in twenty minutes,[6],727 counts
EQVEFSFPL,COUNTS of radiolabeled gp120 retained,[3],1032 counts
EQVEFSFPLAFT,COUNTS of radiolabeled gp120 retained,[3],1556 counts
EQVEFSFPLAFTVEK,COUNTS of radiolabeled gp120 retained,[1],4135 counts
EQVEFSFPLAFTVEKLTG,COUNTS of radiolabeled gp120 retained,[1],798 counts
EQVEFSFPLAFTVEKLTGSGE,COUNTS of radiolabeled gp120 retained,[2],765 counts
ERASSVYTRSTGEQEISV [CCR5 segment 333-],Counts per 20′ Average-background,background subtracted,84 counts per 20′
ESNIKVLPTWSTPVQPMALIV [human CD4 381-401],number of radioactive decays (counts) counted,,1992 counts
EVEDQKEEV,COUNTS of radiolabeled gp120 retained,[7],587 counts
EVEDQKEEVQLL,COUNTS of radiolabeled gp120 retained,[7],508 counts
EVEDQKEEVQLLVFG,COUNTS of radiolabeled gp120 retained,[8],2805 counts
EVEDQKEEVQLLVFGLTA,COUNTS of radiolabeled gp120 retained,[8],3647 counts
EVNLVVMRATQLQKNLTCEVW [human CD4 311-331],number of radioactive decays (counts) counted,,2183 counts
EVQLLVFGL,COUNTS of radiolabeled gp120 retained,[7],2146 counts
EVQLLVFGLTAN,COUNTS of radiolabeled gp120 retained,[7],1838 counts
EVQLLVFGLTANSDT,COUNTS of radiolabeled gp120 retained,[8],2689 counts
EVQLLVFGLTANSDTHLL,COUNTS of radiolabeled gp120 retained,[8],667 counts
FACWLPYYIGISIDSFIL [CXCR4 segment 249-266],radioactive counts recorded in twenty minutes,[5],202 counts
same,radioactive counts recorded in twenty minutes,[6],614 counts
FFIILLTIDRYLAVVHAV [CCR5 segment 117-],Counts per 20′ Average-background,background subtracted,77 counts per 20′
FGLTANSDT,COUNTS of radiolabeled gp120 retained,[7],563 counts
FGLTANSDTHLL,COUNTS of radiolabeled gp120 retained,[7],571 counts
FGLTANSDTHLLQGQ,COUNTS of radiolabeled gp120 retained,[8],625 counts
FGLTANSDTHLLQGQSLT,COUNTS of radiolabeled gp120 retained,[8],591 counts
FGQVMCKSLLGIYTINFY,radioactive counts recorded in twenty minutes,"STRL33 18-mer scan, background subtracted, first of two count columns",1257.5 counts
same,radioactive counts recorded in twenty minutes,"STRL33 18-mer scan, background subtracted, second of two count columns",1354.5 counts
FHCCLNPILYAFLGAKFK [CXCR4 segment 293-310],radioactive counts recorded in twenty minutes,[5],123 counts
same,radioactive counts recorded in twenty minutes,[6],535 counts
FIFGFVGNMLVILILINC [CCR5 segment 41-58],Counts per 20′ Average-background,background subtracted,343 counts per 20′
FIGFFSGIFFIILLTIDR,Counts per 20′ Average-background,background subtracted,76 counts per 20′
FIGLGIFFCVRCRHRRRQAER,number of radioactive decays (counts) counted,,1900 counts
FISLDRYLAIVHATNSQR,radioactive counts recorded in twenty minutes,[5],91 counts
same,radioactive counts recorded in twenty minutes,[6],503 counts
FKIDIVVLA,COUNTS of radiolabeled gp120 retained,[3],568 counts
